Activity calls are given as the source filed them. The calls are words filed in the database; no cut-off is given here.
Legend:
[1] = biological target: Epidermal growth factor receptor (Homo sapiens, UniProt P00533, C797S/L858R/T790M); experiment: Inhibition of EGFR C797S/T790M/L858R mutant (unknown origin)
[2] = biological target: Epidermal growth factor receptor (Homo sapiens, UniProt P00533, C797S/EX19DEL/T790M); experiment: Inhibition of EGFR C797S/T790M/Del19 mutant (unknown origin)
[3] = system: NCI-H1975; experiment: Inhibition of colony formation in human NCI-H1975 cells at 5 to 10 nM by crystal violet staining based analysis; type: functional, cell-based; conditions: dose 5-10 nM
[4] = system: BaF3; experiment: Inhibition of colony formation in mouse BaF3 cells harboring EGFR L858R/T790M/C797S mutant at 5 to 10 nM by crystal violet staining based analysis; type: functional, cell-based; conditions: dose 5-10 nM
[5] = system: BaF3; experiment: Antiproliferative activity against mouse BaF3 cells harboring EGFR L858R/T790M/C797S mutant assessed as inhibition of sphere formation incubated for 72 hrs by CCK8 assay; type: functional, cell-based; conditions: BaF3, 72 h
[6] = system: BaF3; experiment: Induction of cell death in outer layer of cell spheres of mouse BaF3 cells harboring EGFR L858R/T790M/C797S mutant at 1 nM by Calcein AM/PI staining based analysis; type: functional
[7] = system: BaF3; experiment: Induction of apoptosis in mouse BaF3 cells harboring EGFR L858R/T790M/C797S mutant assessed as increase in green fluorescence at 10 to 25 nM by TUNNEL method; type: functional, cell-based; conditions: dose 10-25 nM
[8] = system: NCI-H1975; experiment: Induction of apoptosis in human NCI-H1975 cells assessed as viable cells at 10 nM incubated for 24 hrs by Annexin V-FITC/PI staining based flow cytometry (reference value: 91.38 %); type: functional; conditions: read-out: Activity
[9] = system: NCI-H1975; experiment: Induction of apoptosis in human NCI-H1975 cells assessed as late apoptotic cells at 10 nM incubated for 24 hrs by Annexin V-FITC/PI staining based flow cytometry (reference value: 3.55 %); type: functional
[10] = system: BaF3; experiment: Induction of apoptosis in mouse BaF3 cells harboring EGFR L858R/T790M/C797S mutant assessed as early apoptotic cells at 10 nM incubated for 24 hrs by Annexin V-FITC/PI staining based flow cytometry (reference value: 0.15 %); type: functional
[11] = system: NCI-H1975; experiment: Inhibition of cell migration in human NCI-H1975 cells by transwell assay; type: functional, cell-based
[12] = system: BaF3; experiment: Antitumor activity against mouse BaF3 cells allografted in nude mouse at 50 mg/kg, po measured for 7 days relative to control; type: functional; conditions: BaF3, 168 h, time 7 day, read-out: TGI
[13] = Toxicity in nude mouse allografted with mouse BaF3 cells assessed as animal health at 50 mg/kg, po measured for 7 days; type: organism-based; conditions: in vivo, 168 h, time 7 day
[14] = Toxicity in nude mouse allografted with mouse BaF3 cells assessed as animal abnormality at 50 mg/kg, po measured for 7 days; type: organism-based; conditions: in vivo, 168 h, time 7 day
[15] = Toxicity in nude mouse xenografted with human NCI-H1975 cells assessed as body weight loss at 50 mg/kg, po measured for 7 days; type: organism-based; conditions: in vivo, 168 h, time 7 day
[16] = system: BaF3; experiment: Inhibition of EGFR L858R/T790M/C797S mutant phosphorylation in mouse BaF3 cells assessed as reduction in red fluorescence incubated for 24 hrs by immunofluorescence analysis; type: cell-based
[17] = system: NCI-H1975; experiment: Inhibition of fibronectin activation in human NCI-H1975 cells xenografted in nude mouse at 50 mg/kg, po for 7 days by IHC analysis; type: functional, organism-based; conditions: time 7.0 day
[18] = system: BaF3; experiment: Inhibition of fibronectin activation in mouse BaF3 cells allografted in nude mouse at 50 mg/kg, po for 7 days; type: functional, organism-based; conditions: time 7.0 day
[19] = Cytotoxicity against human L02 cells; type: toxicity, cell-based
[20] = Toxicity in nude mouse allografted with mouse BaF3 cells assessed as damage in spleen at 50 mg/kg, po for 7 days by H and E staining based analysis; type: organism-based; conditions: in vivo, 168 h, time 7 day
[21] = Toxicity in nude mouse allografted with mouse BaF3 cells assessed as damage in lung at 50 mg/kg, po for 7 days by H and E staining based analysis; type: organism-based; conditions: in vivo, 168 h, time 7 day
[22] = biological target: Vascular endothelial growth factor receptor 2 (Homo sapiens) (UniProt P35968); experiment: Binding affinity to KDR (unknown origin) at 100 nM by kinase profiling analysis
Sequence of Vascular endothelial growth factor receptor 2 (Homo sapiens) (P35968 whole entry): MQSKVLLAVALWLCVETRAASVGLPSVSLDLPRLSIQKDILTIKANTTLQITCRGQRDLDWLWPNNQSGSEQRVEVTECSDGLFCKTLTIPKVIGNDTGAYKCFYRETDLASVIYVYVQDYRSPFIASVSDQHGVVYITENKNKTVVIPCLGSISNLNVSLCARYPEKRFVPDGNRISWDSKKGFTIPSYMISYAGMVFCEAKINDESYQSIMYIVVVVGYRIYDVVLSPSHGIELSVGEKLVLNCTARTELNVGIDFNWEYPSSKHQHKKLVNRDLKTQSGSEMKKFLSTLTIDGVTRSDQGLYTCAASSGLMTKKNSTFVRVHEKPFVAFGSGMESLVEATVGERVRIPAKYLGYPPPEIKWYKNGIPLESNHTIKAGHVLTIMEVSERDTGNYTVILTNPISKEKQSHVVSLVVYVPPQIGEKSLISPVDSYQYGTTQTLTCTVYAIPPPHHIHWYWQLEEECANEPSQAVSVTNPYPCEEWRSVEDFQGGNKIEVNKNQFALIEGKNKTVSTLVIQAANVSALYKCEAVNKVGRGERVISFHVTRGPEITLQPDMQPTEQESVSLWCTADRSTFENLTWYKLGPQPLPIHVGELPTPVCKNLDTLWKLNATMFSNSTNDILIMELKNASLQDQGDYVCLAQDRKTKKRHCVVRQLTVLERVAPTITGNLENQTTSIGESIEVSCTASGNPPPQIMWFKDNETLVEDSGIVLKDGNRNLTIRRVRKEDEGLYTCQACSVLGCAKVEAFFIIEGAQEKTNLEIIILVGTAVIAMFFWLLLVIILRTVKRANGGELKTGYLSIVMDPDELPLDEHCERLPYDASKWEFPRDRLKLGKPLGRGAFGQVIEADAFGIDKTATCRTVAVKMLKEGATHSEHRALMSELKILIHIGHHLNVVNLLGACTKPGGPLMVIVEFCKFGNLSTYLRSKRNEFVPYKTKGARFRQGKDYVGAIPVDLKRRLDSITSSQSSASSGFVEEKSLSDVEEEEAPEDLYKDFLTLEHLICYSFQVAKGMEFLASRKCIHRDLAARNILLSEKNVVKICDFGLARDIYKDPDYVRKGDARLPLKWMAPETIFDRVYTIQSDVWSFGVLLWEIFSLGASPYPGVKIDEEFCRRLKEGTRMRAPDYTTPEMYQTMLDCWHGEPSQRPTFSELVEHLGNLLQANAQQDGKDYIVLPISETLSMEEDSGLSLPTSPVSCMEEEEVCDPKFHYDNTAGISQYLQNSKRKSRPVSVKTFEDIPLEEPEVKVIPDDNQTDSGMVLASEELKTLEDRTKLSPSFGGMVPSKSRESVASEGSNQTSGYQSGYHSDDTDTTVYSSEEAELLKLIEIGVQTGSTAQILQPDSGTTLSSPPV

Sequence of Epidermal growth factor receptor (Homo sapiens, UniProt P00533, C797S/EX19DEL/T790M) (P00533 whole entry, looked up, stated change not applied): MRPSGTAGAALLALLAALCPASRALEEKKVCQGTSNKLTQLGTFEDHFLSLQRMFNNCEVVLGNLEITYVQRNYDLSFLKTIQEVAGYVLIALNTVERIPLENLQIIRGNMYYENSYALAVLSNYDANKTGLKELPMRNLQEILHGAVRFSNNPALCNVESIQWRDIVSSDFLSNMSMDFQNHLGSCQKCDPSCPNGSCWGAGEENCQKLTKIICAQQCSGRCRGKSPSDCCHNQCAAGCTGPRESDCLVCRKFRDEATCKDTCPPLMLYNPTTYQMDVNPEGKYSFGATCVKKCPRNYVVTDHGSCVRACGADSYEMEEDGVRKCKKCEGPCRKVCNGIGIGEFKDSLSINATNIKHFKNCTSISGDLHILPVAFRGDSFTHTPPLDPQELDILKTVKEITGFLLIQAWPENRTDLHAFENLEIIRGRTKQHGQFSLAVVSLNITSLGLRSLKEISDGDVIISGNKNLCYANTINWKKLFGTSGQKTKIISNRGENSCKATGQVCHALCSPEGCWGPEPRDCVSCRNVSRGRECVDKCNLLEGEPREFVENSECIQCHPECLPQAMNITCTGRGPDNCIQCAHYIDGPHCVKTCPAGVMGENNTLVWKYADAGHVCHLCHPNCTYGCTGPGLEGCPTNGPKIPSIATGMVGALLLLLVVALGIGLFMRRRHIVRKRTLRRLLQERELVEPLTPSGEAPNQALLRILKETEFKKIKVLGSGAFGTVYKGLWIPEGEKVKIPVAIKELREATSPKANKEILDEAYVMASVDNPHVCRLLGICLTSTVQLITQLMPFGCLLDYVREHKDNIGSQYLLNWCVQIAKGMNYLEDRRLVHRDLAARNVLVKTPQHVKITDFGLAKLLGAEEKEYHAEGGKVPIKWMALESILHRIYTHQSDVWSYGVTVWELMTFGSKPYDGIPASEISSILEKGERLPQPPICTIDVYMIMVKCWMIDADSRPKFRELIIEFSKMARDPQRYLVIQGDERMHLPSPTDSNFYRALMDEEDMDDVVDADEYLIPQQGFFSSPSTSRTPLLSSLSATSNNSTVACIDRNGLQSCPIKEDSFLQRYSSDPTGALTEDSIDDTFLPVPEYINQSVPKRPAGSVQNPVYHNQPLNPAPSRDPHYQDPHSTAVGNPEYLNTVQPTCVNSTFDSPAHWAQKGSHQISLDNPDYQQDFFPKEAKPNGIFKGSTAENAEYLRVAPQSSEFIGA
Sequence of Epidermal growth factor receptor (Homo sapiens, UniProt P00533, C797S/L858R/T790M) (P00533 25-1210 T790M/C797S/L858R limits assumed): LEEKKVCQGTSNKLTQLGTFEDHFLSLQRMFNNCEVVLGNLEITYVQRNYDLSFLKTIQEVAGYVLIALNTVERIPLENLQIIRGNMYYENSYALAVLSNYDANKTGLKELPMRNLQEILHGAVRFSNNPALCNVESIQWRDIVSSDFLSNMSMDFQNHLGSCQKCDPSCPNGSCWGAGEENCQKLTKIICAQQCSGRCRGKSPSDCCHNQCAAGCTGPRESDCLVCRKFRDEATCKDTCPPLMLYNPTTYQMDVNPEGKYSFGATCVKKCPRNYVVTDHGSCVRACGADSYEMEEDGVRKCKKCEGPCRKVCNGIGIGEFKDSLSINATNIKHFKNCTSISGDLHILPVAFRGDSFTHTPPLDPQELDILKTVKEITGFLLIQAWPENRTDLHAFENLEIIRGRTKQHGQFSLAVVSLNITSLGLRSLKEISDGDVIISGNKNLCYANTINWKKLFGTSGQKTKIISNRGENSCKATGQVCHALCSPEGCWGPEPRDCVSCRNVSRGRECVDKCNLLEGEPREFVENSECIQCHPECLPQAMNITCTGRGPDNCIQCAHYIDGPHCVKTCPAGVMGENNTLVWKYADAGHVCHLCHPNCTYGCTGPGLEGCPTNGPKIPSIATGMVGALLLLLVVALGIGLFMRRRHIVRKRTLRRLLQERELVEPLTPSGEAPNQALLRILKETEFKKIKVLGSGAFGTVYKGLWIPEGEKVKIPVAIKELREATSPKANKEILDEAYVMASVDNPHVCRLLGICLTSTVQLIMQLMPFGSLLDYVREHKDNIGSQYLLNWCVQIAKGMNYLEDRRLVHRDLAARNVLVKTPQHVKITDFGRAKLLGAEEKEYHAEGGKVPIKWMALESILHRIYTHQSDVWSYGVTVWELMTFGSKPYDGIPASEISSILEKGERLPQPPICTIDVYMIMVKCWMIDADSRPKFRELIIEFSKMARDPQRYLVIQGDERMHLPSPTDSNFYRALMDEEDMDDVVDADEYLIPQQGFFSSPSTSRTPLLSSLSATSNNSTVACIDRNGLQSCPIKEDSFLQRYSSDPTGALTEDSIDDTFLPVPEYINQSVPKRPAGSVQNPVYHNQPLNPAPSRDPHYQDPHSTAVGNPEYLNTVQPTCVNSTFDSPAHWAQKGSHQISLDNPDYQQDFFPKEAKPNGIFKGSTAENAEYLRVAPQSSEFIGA

In the case of `CN1CCCN(c2ccc(Nc3ncc(Br)c(Nc4ccccc4NS(=O)(=O)C4CC4)n3)cc2)CC1`, the IC50 [1] is reported as 0.61 nM, the IC50 [2] is reported as 0.42 nM and the inhibition [3] is reported as “Active”. The inhibition [4] was “Active”, the IC50 [5] was 11.2 nM and the Activity [6] was “Active”. For the same compound, the Activity [7] was “Active”, the viability at 0.01 µM [8] was 77.3% and the Activity [9] was 6.42%. For the same compound, the Activity [10] was 9.36%, the inhibition [11] was “Active” and the inhibition in vivo at 50 mg/kg [12] was 71.2%. For the same compound, the Activity [13] was “Non-Toxic”, the Activity [14] was “Non-Toxic” and the Activity [15] was “Non-Toxic”. For the same compound, the inhibition [16] was “Active”, the inhibition [17] was “Active” and the inhibition [18] was “Active”. The IC50 [19] was 4350 nM, the Activity [20] was “Non-Toxic” and the Activity [21] was “Non-Toxic”. The Activity [22] was “Active”.

Reference: ChEMBL document CHEMBL5579839, “Discovery of new cyclopropane sulfonamide derivatives as EGFR inhibitors to overcome C797S-mediated resistance and EGFR double mutation” (Eur J Med Chem, 2024)
